Assay results published in PubChem BioAssay AID179 (DTP/NCI, 2004).
The source made the active and inactive calls.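 How the source made its calls: active means compounds giving half or more protection of infected cells from virus-caused growth loss, again on retest; inactive means the rest.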 Where a SMILES comes first, the peptide text is derived from it. The star is where a group is joined. Boc = CC(C)(C)OC(=O)*

Tested on: CEM cells HIV-1 protection, formazan growth assay
Assay: NCI AIDS Antiviral Assay
Conditions: for IC50: measured here: growth of uninfected CEM cells
Procedure, shortened: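 Protection of CEM cells against HIV-1 measured as cell growth via soluble formazan read-out, with five concentrations tested on both infected and uninfected cells; failure to protect may reflect toxicity.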

| Structure (SMILES) | EC50 [µM] | IC50 [µM] | outcome |
| --- | --- | --- | --- |
| C[Si](C)(C)OC1(C2=CCCC2)CCCC1CC#N (stereo not drawn) | > 955 | > 955 |  |
| OCc1c2c(cc3c1CC1(C3)Cc3cc4c(c(CO)c3C1)CCC4)CCC2 | > 200 | 8.13 |  |
| O=C1c2ccccc2C(=O)c2sc(Nc3cccc(Cl)c3)nc21 | > 5.89 | 3.39 |  |
| NC1CC(=O)c2csc(Br)c21 (stereo not drawn) | > 57.5 | 11 |  |
| O=C1OCCC12CN(Cc1ccccc1)N=N2 (stereo not drawn) | > 200 | > 200 |  |
| COCCCCCCCCCCC(=O)OCC1OC(n2cc(C)c(=O)[nH]c2=O)CC1N=[N+]=[N-] (stereo not drawn) |  | 117 | active |
| COC(=O)C12Oc3ccc(-c4ccc5c(c4O)C(=O)C4=CCC(C)C(O)C4(C(=O)OC)O5)c(O)c3C(=O)C1=CCC(C)C2O (stereo not drawn) | > 12 | 1.78 |  |
| O=C(O)Cc1cccc2c1Oc1ccccc1S2 | > 5620 | 204 |  |
| COP1(=O)OCC(C)(C)CO1 | > 1380 | > 1380 |  |
| O=C(OCCN=C1c2ccccc2CCc2ccccc21)c1cc([N+](=O)[O-])cc([N+](=O)[O-])c1 | > 200 | 70.8 |  |
| C(=C\c1ccccc1)/COc1ccccc1C(N1CCOCC1)n1nc2ccccc2n1 (stereo not drawn) | > 200 | 6.76 |  |
| C=CCCCN(C(=O)c1ccccc1)c1ccc(C(=O)OC)o1 | > 200 | 50.1 |  |
| COc1cccc(NC(=O)CC(=O)N2N=C(N(CCC#N)c3ccc(Cl)cc3)CC2c2ccccc2)c1 (stereo not drawn) | > 69.2 | > 69.2 |  |
| O=C1CSC(=Nc2ccc(F)cc2F)N1Cc1cccs1 | > 107 | 40.7 |  |
| O=c1[nH]c2cnn(-c3ccccc3)c2c(=O)n1O | > 200 | 21.4 |  |
| Cc1ccc(S(=O)(=O)C(C#N)c2nc3ccccc3nc2N2CCOCC2)cc1 (stereo not drawn) | > 16.6 | > 16.6 |  |
| CCC(CCCCC1CC[C@H]2CC(=O)C[C@@H]12)OC (stereo partly drawn) | > 200 | 107 |  |
| COC1=C(C)C(=O)C2=C(C1=O)C1C3CC4=C(C(=O)C(OC)=C(C)C4=O)C(CNC(=O)C(C)=O)N3C(C#N)C(C2)N1C (stereo not drawn) | > 1.2 | 0.0245 |  |
| O=Nc1ccc2ccccc2c1O | > 200 | 4.27 |  |
| COC1C(OC(N)=O)C(O)C(Oc2ccc3c(O)c(NC(=O)c4ccc(O)c(CC=C(C)C)c4)c(=O)oc3c2C)OC1(C)C (stereo not drawn) | > 389 | 79.4 |  |
| OC(CNc1ccccn1)c1ccccc1 (stereo not drawn) | > 200 | > 200 |  |

| Structure (SMILES) | EC50 [µM] | IC50 [µM] | outcome |
| --- | --- | --- | --- |
| C=C1[C@@H](OC(C)=O)[C@H]2[C@@H](OC(C)=O)[C@@](C)(OC(C)=O)C[C@]2(OC(C)=O)C(=O)[C@@H](C)/C=C/C(C)(C)C(=O)C[C@H]1OC(C)=O | > 200 | 72.4 |  |
| O=S(=O)(N=NC=C1c2ccccc2N(O)c2ccccc21)c1ccc(Cl)cc1 |  |  | inactive |
| COc1ccc2c(CN3CCCCC3CO)cc3cc(OC)c(OC)cc3c2c1 (stereo not drawn) |  |  | inactive |
| c1ccc(OCCSCCCCCCCCCCSCCOc2ccccc2)cc1 | > 8.51 | > 8.51 |  |
| Cc1ccc2c(c1)C(=O)C1(C2)Cc2cccc(C)c2C1=O (stereo not drawn) | > 200 | > 200 |  |
| O=C(CO)CC(=O)C(=O)Nc1nc([N+](=O)[O-])cs1 | > 132 | > 132 |  |
| Cc1cn([C@H]2C[C@H](NC(=O)N(O)C[C@H]3O[C@@H](n4cc(C)c(=O)[nH]c4=O)C[C@@H]3O)[C@@H](CO)O2)c(=O)[nH]c1=O | > 200 | > 200 |  |
| CC1(C)CC2CCC(O)C2C(CCO)N1 (stereo not drawn) | > 200 | > 200 |  |
| COc1ccc(-c2nc(-c3cc4ccccc4oc3=O)cs2)cc1 | > 100 | > 100 |  |
| Cn1nc(/C=C/c2ccccc2)nc2c(=O)n(C)c(=O)nc1-2 | > 200 | 0.631 |  |
| COC(=O)C(Cc1c[nH]c2ccccc12)NC(=O)C(Cc1c[nH]c2ccccc12)NC(=O)C(Cc1c[nH]c2ccccc12)NC(=O)C(Cc1c[nH]c2ccccc12)NC(=O)OC(C)(C)C (stereo not drawn) (Boc-WWWW-OMe; configuration not given here) | > 100 | 13.8 |  |
| C=CCP(=O)(CC=C)C(Cl)Cl | > 200 | > 200 |  |
| C=CCNC(=O)N(CCCC(NC(C)=O)C(=O)NCc1ccccc1)Cc1ccccc1 (stereo not drawn) | > 575 | > 575 |  |
| CC(=O)Oc1cc2c(cc1OC(C)=O)C1(C)CCC2(C)c2cc(OC(C)=O)c(OC(C)=O)cc21 |  |  | inactive |
| C/C=C/C1C=Cc2ccccc2C1(C)C1=NC(C)(C)CO1 (stereo not drawn) | > 25.7 | > 25.7 |  |
| Oc1ccccc1-c1n[nH]c(-c2ccccc2O)n1 | > 200 | 1.38 |  |
| [Pt].c1ccc([PH+](CC[PH+](CC[PH+](c2ccccc2)c2ccccc2)CC[PH+](c2ccccc2)c2ccccc2)c2ccccc2)cc1 | > 21.9 | 0.417 |  |
| CC12SC(C)(c3c[se]cc31)C1C(=O)N(c3ccccc3)C(=O)C12 (stereo not drawn) |  |  | inactive |
| CN(C)P(=S)(CCPc1ccccc1)N(C)C (stereo not drawn) | > 18.2 | > 18.2 |  |
| COc1cc2ccc1NC(=O)N1CCN(CC1)C(=O)Nc1ccc(cc1OC)-c1ccc(c(OC)c1)NC(=O)N1CCN(CC1)C(=O)Nc1ccc-2cc1OC | > 0.933 | > 0.933 |  |
| COC1/C=C/OC2(C)Oc3c(C)c(O)c4c(O)c(c(/C=N/N(C)C5OC(COC(=O)c6ccccc6)C(OC(=O)c6ccccc6)C5OC(=O)c5ccccc5)c(O)c4c3C2=O)NC(=O)C(C)=C/C=C/C(C)C(O)C(C)C(O)C(C)C(OC(C)=O)C1C (stereo not drawn) | > 200 | 10 |  |

| Structure (SMILES) | EC50 [µM] | IC50 [µM] | outcome |
| --- | --- | --- | --- |
| O=C(O)c1cc(Sc2ccc([N+](=O)[O-])c(C(=O)O)c2)ccc1[N+](=O)[O-] | > 200 | > 200 |  |
| Nc1ncnc2c1ncn2C1OC(COP(=O)(O)CP(=O)(O)O)C(O)C1O (stereo not drawn) | > 200 | > 200 |  |
| CSc1c(C#N)c(=O)[nH]c2n[nH]c(C)c12 | > 200 | > 200 |  |
| CC12CCC(C)(O1)C1C(=O)N(c3nccs3)C(=O)C12 (stereo not drawn) | > 891 | > 891 |  |
| COc1cccc(/C=C/c2nc3ccccc3nc2/C=C/c2cccc(OC)c2OC)c1OC | > 200 | 55 |  |
| CCC[CH2][Sn]1([CH2]CCC)[O]C(c2ccccn2)S(=O)(=O)[O]1 (stereo not drawn) | > 30.9 | 0.178 |  |
| CCOC(=O)/C=C\c1c(Cl)n(-c2ccccc2)c(=O)n(-c2ccccc2)c1=O | > 200 | 31.6 |  |
| CC(C)(C)C(=O)OCOP(=O)(OCOC(=O)C(C)(C)C)OCC1OC(n2cc(F)c(=O)[nH]c2=O)CC1O (stereo not drawn) | > 151 | 2.09 |  |
| C=CCCCCC1CCC2CCC(CCCC)N12 (stereo not drawn) | > 525 | > 525 |  |
| CCOC(=O)c1c(C)nc2c(c1-c1cn(-c3ccccc3)nc1-c1ccccc1)C(=O)c1ccccc1-2 |  |  | inactive |
| N#CNc1nc(C(=O)Nc2ccc(Cl)cc2)cc(-c2ccccc2)n1 | > 355 | > 355 |  |
| C/C=C/C[P+](Cc1ccccc1)(c1ccccc1)c1ccccc1 | > 603 | 4.17 |  |
| CNC(=O)NC1ON=C(c2ccccc2)C1C(=O)NC (stereo not drawn) | > 200 | 182 |  |
| O=C(Nc1ccc(C(F)(F)F)cc1[N+](=O)[O-])C(=O)Nn1c(=S)[nH]c2ccccc2c1=O | > 79.4 | > 79.4 |  |
| Cc1nc(N)nc(N)c1N1CCNCC1 | > 200 | > 200 |  |
| CC(NC(=O)c1ccccc1)NC(=O)C(C)C(=O)Nc1ccccc1 (stereo not drawn) |  |  | inactive |
| CN(C)CCCN1C(=S)N(CCCN(C)C)c2c3ccccc3nc3c([N+](=O)[O-])ccc1c23 | 0.407 | 1.07 |  |
| O=c1[nH]c2c(c(=O)[nH]1)SSC2 | > 200 | 0.631 |  |
| O=C1c2ccncc2C(=O)c2c(O)ccc(O)c21 | > 6.03 | 3.24 |  |
| CC(C)[Si](OC1=CCCCCC12C(=O)N(C)c1ccccc12)(C(C)C)C(C)C (stereo not drawn) | > 200 | 33.9 |  |
| Cc1ccc2cccc3c2c1CC1(C3=O)S(=O)(=O)OCCOS1(=O)=O | > 200 | > 200 |  |

| Structure (SMILES) | EC50 [µM] | IC50 [µM] | outcome |
| --- | --- | --- | --- |
| CN(C)CCS(=O)(=O)O | > 200 | > 200 |  |
| CC1=NNC(=O)C1C1CC(c2c[nH]c3ccccc23)=NNC1=O (stereo not drawn) | > 200 | 155 |  |
| C[Si](C)(OCCS(=O)(=O)O)C1S(=O)(=O)OCCOS1(=O)=O | > 200 | 60.3 |  |
| O=C1C(=O)c2ccccc2C(O)=C1C(CCc1ccccc1)C1=C(O)c2ccccc2C(=O)C1=O | > 200 | 55 |  |
| COc1ccc2[nH]c3c4c(ccc3c2c1)C(=O)C=CC4=O | > 93.3 | 4.47 |  |
| CC(=O)Nc1ccc2nncnc2c1 | > 200 | > 200 |  |
| O=C(O)Cc1cccc2c(=O)c(-c3ccccc3)coc12 | > 200 | > 200 |  |
| O=[N+]([O-])c1c(/C=N/Nc2ccccc2)oc(-c2ccc3c(c2)OCO3)c1-c1ccc2c(c1)OCO2 | > 21.4 | 3.98 |  |
| O=C1C(=O)C(c2ccccc2)S(=O)(=O)C1c1ccccc1 (stereo not drawn) |  |  | inactive |
| Clc1ccc(Cl)c(SSc2cc(Cl)ccc2Cl)c1 |  |  | inactive |
| COc1ccc(C=C2C(=O)OC(C)(C)OC2=O)cc1 | > 501 | 151 |  |
| Oc1ccccc1-c1n[nH]c(=S)n1/N=C/c1ccc(-c2ccc(Br)cc2)o1 | > 42.7 | > 42.7 |  |
| Cc1cc(NC(=O)Nc2ccc(N=Nc3cc(S(=O)(=O)[O-])c4cccc(S(=O)(=O)[O-])c4c3)c(C)c2)ccc1N=Nc1cc(S(=O)(=O)[O-])c2cccc(S(=O)(=O)[O-])c2c1.[Ga] | > 75.9 | 13.5 |  |
| COC(=O)C1=C(CO)C2C=CC1C2 (stereo not drawn) |  |  | inactive |
| CC(=O)OCC1CC(n2cc(C)c(=O)[nH]c2=O)=NO1 (stereo not drawn) | > 200 | > 200 |  |
| O=C(/C(=C/c1ccccc1)c1ccccc1)N1c2ccccc2CC1c1c[nH]c2ccccc12 (stereo not drawn) | 0.38 | 8.51 |  |
| CSCCC(NP(=S)(c1ccccc1)c1ccccc1)C(=O)O (stereo not drawn) | > 200 | > 200 |  |
| Cc1c(CN2CCOCC2)cc(C(C)C)c(O)c1CN1CCOCC1 | > 200 | > 200 |  |
| CSc1c(C(C)=O)c(O)n(-c2ccc(C)cc2)c(=O)c1C#N | > 200 | 63.1 |  |
| NCCCC1CCCCNC1 (stereo not drawn) |  |  | inactive |
| CN(C)c1ccc(S(=O)c2ccc(N(C)C)cc2)cc1 | > 34.7 | > 34.7 |  |
